These are literature values, as cited in patent US9687002B2, “Botanical antimicrobial microemulsions (BAMM)” (Indusco, Ltd., priority 2015, dated 2017).

In this data set the test system is various fungi that commonly infect toenails.

Regarding `Cc1ccc(C(C)C)c(O)c1` [Thymol], the effectiveness against fungi result is given as “effective”.
